In patent US20160303127A1, “COMBINATION THERAPY WITH C-MET AND EGFR ANTAGONISTS” (Genentech, Inc., priority 2008, published 2016):
Several values for one entry are separate records, joined by “and”; a condition that tells them apart may be missing. Equal entries are not always repeated.

Key:
[1] = system: EBC-1 shMet-4.5 tumors; assay: Combination efficacy of erlotinib with c-met knockdown (Dox) in the EBC-1 shMet-4.5 NSCLC xenograft model; type: in vivo, nude mice (nu/nu); settings: EBC-1 shMet-4.5 xenograft
Procedure: Test material. Erlotinib (Tarceva™) was provided by OSI Pharmaceuticals to the Formulations Department at Genentech and was weighed out along with a sufficient amount of vehicle (methylcellulose tween (MCT)). Materials were stored in a refrigerator set to maintain a temperature range of 4° C. to 8° C. Anti-c-met monovalent monoclonal antibody MetMAb (rhuOA5D5v2) (WO2007/063816) was provided by the Antibody Engineering Department at Genentech, Inc., in a clear liquid form. The EBC-1 cell line was obtained from Japanese Collection of Research Bioresources (JCRB). Species. Forty nude mice (nu/nu) were obtained from Charles River Laboratories (CRL) and were acclimatized for at least one week prior to being put on study. Animals were housed in ventilated caging systems in rooms with filters supplying High-Efficiency Particulate Air (HEPA). Only animals that appeared to be healthy and were free of obvious abnormalities were used for the study. Study design. EBC-1 cells were cultured in growth media that consisted of RPMI 1640 media (Invitrogen), 2 mM L-glutamine, and 10% fetal bovine serum. To prepare cells for inoculation into mice, cells were trypsinized, washed with ten milliliters of sterile 1× phosphate buffered saline (PBS). A subset of cells was counted by trypan blue exclusion and the remainder of cells was resuspended in 100 μl of sterile 1× PBS to a concentration of 5×10^7 cells per milliliter. Mice were inoculated subcutaneously in the right sub-scapular region with 5×10^6 EBC-1 cells. […] Mice in Group 1 (control group) were treated with 100 μL vehicle control, methylcellulose tween (MCT), every day (QD) via oral gavage (PO) and were switched to drinking water containing 5% sucrose. […] Dox and sucrose water was changed every 2-3 days. Erlotinib and MCT were dosed for 14 days, stopped for 6 days and then resumed for the remainder of the study (20 days). […] All studies and handling of mice complied with the Institutional Animal Care and Use Committee (IACUC) guidelines. [table] Tumor and Body Weight Measurement. […] Fowler Company, Inc.; Newton, Mass.). The following formula was used with Excel v11.2 (Microsoft Corporation; Redmond, Wash.) to calculate tumor volume: […] Efficacy Data Analysis. Tumor inhibition was plotted using KaleidaGraph 3.6 (Synergy Software; Reading, Pa.). Percent growth inhibition (% Inh) at Day 17 was calculated as follows: […] Tumor incidence (TI) was determined by the number of measurable tumors in each group at Day 17. […] Mean tumor volume and standard error of the mean (SEM) were calculated using JMP software, version 5.1.2 (SAS Institute; Cary, N.C.). Data analysis and generation of p-values using either Student's t-test or the Dunnett's t-test was also done using JMP software, version 5.1.2. […] Mice were then grouped into four treatment arms; […] Vehicles, Group 2: Doxycycline (Dox), Group 3: erlotinib (100 mg/kg), and Group 4: erlotinib+Dox (See Table 6).

[2] = target: T1, EGFR (Homo sapiens, UniProt P00533); assay: EGFR phosphorylation in NCI-H596 hu-HGF-Tg-SCID xenograft tumors (IP/immunoblot); type: in vivo, mouse xenograft; settings: MetMAb 30 mg/kg 24 h, erlotinib 150 mg/kg 6 h prior to harvest, average of 5 animals
T1 construct: endogenous in cells; host or cells: NCI-H596 (human NSCLC) cells grown as xenograft tumours in hu-HGF-Tg-SCID mice; tumour lysate, IP with MI-12-1 and immunoblot
Procedure: Tumors were allowed to grow to 200-300 mm^3 prior to treatment. Dosing was performed as described in Table 8. Briefly, MetMAb (30 mg/kg) or MetMAb buffer was dosed at time zero hours (0 hr) and methylcellulose tween vehicle (MCT) or erlotinib (150 mg/kg) was dosed at time 18 hours (18 hr). Mice were euthanized and tumors and plasma collected at time 24 hours (24 hr). Tumors were snap frozen in liquid nitrogen and then kept at −70° C. until they were processed for immunoprecipitation and immunoblotting.
Immunoprecipitations and Immunoblotting: To process tumors for protein analysis, tumors were first homogenized using a glass dounce with lysis buffer (Cell Signaling Technology, Inc., Danvers, Mass.), supplemented with 1 mM PMSF, additional protease inhibitor cocktail, and phosphatase inhibitor cocktail I and II (Sigma, Inc., St. Louis, Mo.). Lysates were incubated on ice for one hour and then centrifuged at 14,000×g for five minutes and supernatants collected. Protein concentrations were determined using the BCA™ Protein Assay Kit (Pierce, Inc., Rockford, Ill.) and samples were immunoblotted. […] Samples were then analyzed by SDS-PAGE and immunoblotting. […] Immunoblots were imaged and phospho-protein levels were quantified and normalized to total protein levels (e.g. pEGFR over total EGFR) using an Odyssey imager (LI-COR Biosciences, Lincoln, Nebr.). […]

[3] = 10 mice per group, any day during the study

Molecule | number of complete responses (CR; tumor regression of 100%) [1, 3] | number of partial responses (PR; tumor regression >50% but <100% of starting tumor volume) [1, 3] | reduction in tumor growth compared to the vehicle control (tumor inhibition) ([1]; nude mice, day 19, erlotinib 100 mg/kg PO QD, Dox in drinking water) [%] | pEGFR/total EGFR (phosphorylation of EGFR) [2]
C#Cc1cccc(Nc2ncnc3cc(OCCOC)c(OCCOC)cc23)c1 [erlotinib, N-(3-ethynylphenyl)-6,7-bis(2-methoxyethoxy)-4-quinazolinamine] | no | no | −6 | –
MetMAb: Anti-c-met monovalent monoclonal antibody MetMAb (rhuOA5D5v2) (WO2007/063816) (antibody, chains of the INN, looked up, V domains shown, one-armed) VH: EVQLVESGGGLVQPGGSLRLSCAASGYTFTSYWLHWVRQAPGKGLEWVGMIDPSNSDTRFNPNFKDRFTISADTSKNTAYLQMNSLRAEDTAVYYCATYRSYVTPLDYWGQGTLVTVSS VL: DIQMTQSPSSLSASVGDRVTITCKSSQSLLYTSSQKNYLAWYQQKPGKAPKLLIYWASTRESGVPSRFSGSGSGTDFTLTISSLQPEDFATYYCQQYYAYPWTFGQGTKVEIK | – | – | – | 62% (+/−21.6%) % of vehicle control and 62 (±21.6) % of vehicle control
